Where two headings read alike, the source gives them in different places.
What was measured:
Assay in all cases: TGFα-shedding assay-based GPCR screening with chimeric Gα subunit proteins
Type in all cases: cell-based
348 GPCRs [1] = target: 348 GPCRs (Homo sapiens, UniProt Q99500); details: 10µM, Favipiravir 100μM
348 GPCRs [2] = target: T1, 348 GPCRs (Homo sapiens, UniProt P0DMS8); details: 10µM, Favipiravir 100μM
T1 construct: expressed in transfected cells; host or cells: HEK293A
T1 sequence (P0DMS8 1-318): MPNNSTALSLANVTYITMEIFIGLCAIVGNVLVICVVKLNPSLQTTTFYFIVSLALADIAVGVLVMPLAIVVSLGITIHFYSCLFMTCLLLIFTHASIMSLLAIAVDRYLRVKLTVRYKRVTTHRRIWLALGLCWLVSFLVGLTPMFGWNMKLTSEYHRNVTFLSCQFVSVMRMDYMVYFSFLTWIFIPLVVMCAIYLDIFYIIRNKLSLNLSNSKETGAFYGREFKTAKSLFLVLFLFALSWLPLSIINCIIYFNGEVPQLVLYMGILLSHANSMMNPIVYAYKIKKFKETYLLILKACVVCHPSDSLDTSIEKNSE

348 GPCRs [3] = target: T2, 348 GPCRs (Homo sapiens, UniProt P48145); details: 10µM, Favipiravir 100μM
T2 construct: expressed in transfected cells; host or cells: HEK293A
T2 sequence (P48145 1-328): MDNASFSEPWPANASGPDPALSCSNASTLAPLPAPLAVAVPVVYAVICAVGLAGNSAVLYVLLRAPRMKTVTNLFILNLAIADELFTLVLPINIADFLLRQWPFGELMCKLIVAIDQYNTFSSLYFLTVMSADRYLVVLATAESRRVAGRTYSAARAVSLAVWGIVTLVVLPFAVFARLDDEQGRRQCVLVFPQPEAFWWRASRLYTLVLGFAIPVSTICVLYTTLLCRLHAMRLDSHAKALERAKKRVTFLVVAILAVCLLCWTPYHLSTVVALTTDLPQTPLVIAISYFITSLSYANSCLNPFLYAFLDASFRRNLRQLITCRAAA

348 GPCRs [4] = target: T3, 348 GPCRs (Homo sapiens, UniProt P51679); details: 10µM, Favipiravir 100μM
T3 construct: expressed in transfected cells; host or cells: HEK293A
T3 sequence (P51679 1-360): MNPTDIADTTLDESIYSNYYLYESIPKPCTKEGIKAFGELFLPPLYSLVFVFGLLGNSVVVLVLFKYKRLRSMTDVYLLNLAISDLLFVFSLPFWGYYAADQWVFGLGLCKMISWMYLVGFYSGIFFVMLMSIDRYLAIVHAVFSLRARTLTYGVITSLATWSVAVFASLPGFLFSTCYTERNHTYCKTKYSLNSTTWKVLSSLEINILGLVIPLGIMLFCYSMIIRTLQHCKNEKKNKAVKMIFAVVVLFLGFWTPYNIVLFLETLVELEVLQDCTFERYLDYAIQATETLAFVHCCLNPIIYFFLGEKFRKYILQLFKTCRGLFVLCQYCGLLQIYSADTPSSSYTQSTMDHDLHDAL

348 GPCRs [5] = target: T4, 348 GPCRs (Homo sapiens, UniProt O75388); details: 10µM, Favipiravir 100μM
T4 construct: expressed in transfected cells; host or cells: HEK293A

348 GPCRs [6] = target: 348 GPCRs (Homo sapiens, UniProt P61073)
348 GPCRs [7] = target: T5, 348 GPCRs (Homo sapiens, UniProt Q9Y5X5); details: 10µM, Favipiravir 100μM
T5 construct: expressed in transfected cells; host or cells: HEK293A

348 GPCRs [8] = target: T6, 348 GPCRs (Homo sapiens, UniProt P48546); details: 10µM, Favipiravir 100μM
T6 sequence (P48546 22-466): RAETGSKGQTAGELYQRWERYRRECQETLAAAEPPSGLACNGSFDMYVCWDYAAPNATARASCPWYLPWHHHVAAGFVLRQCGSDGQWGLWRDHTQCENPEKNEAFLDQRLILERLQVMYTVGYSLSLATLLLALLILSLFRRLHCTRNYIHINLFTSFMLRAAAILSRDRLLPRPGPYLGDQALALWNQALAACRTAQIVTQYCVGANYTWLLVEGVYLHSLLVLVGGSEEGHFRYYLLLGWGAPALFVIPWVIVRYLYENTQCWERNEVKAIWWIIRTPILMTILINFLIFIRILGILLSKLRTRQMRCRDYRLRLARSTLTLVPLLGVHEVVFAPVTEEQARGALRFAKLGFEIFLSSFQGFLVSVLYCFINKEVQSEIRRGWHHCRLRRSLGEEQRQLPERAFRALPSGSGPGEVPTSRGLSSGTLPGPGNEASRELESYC

348 GPCRs [9] = target: T7, 348 GPCRs (Homo sapiens, UniProt O43603); details: 10µM, Favipiravir 100μM
T7 construct: expressed in transfected cells; host or cells: HEK293A
T7 sequence (O43603 1-387): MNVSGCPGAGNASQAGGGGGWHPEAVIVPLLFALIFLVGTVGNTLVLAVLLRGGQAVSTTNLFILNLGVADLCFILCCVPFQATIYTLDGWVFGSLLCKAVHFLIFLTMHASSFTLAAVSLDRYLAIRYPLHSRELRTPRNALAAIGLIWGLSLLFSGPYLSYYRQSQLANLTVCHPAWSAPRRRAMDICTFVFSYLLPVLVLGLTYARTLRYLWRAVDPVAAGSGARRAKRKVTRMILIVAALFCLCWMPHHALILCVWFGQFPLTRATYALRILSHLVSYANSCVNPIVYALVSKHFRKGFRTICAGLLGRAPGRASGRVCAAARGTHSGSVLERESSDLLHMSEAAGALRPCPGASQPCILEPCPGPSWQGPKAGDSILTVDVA

348 GPCRs [10] = target: T8, 348 GPCRs (Homo sapiens, UniProt Q9BXC1); details: 10µM, Favipiravir 100μM
T8 construct: expressed in transfected cells; host or cells: HEK293A

348 GPCRs [11] = target: T9, 348 GPCRs (Homo sapiens, UniProt Q9BZJ7)
T9 construct: expressed in transfected cells; host or cells: HEK293A

[12] = S1PR3 (sphingosine-1-phosphate receptor 3), read-out: % GPCR activation compared to TPA
[13] = ADORA3 (adenosine A3 receptor), read-out: % GPCR activation compared to TPA
[14] = NPBWR1 (neuropeptides B and W receptor 1), read-out: % GPCR activation compared to TPA
[15] = CCR4 (C-C motif chemokine receptor 4), read-out: % GPCR activation compared to TPA
[16] = GPR32 (G protein-coupled receptor 32), read-out: % GPCR activation compared to TPA
[17] = GPCR CXCR4 (chemokine (C-X-C motif) receptor 4), read-out: % GPCR activation compared to TPA
[18] = NPFF2 (neuropeptide FF receptor 2), read-out: % GPCR activation compared to TPA
[19] = GIPR (gastric inhibitory polypeptide receptor), read-out: % GPCR activation compared to TPA
[20] = GAL2 (galanin receptor 2), read-out: % GPCR activation compared to TPA
[21] = GPR174 (G-Protein Coupled Receptor 174), read-out: % GPCR activation compared to TPA
[22] = GPCR GPR62 (G protein-coupled receptor 62), read-out: % GPCR activation compared to TPA
[23] = read-out: % GPCR activation compared to TPA, S1PR3 (sphingosine-1-phosphate receptor 3)
[24] = read-out: % GPCR activation compared to TPA, ADORA3 (adenosine A3 receptor)
[25] = read-out: % GPCR activation compared to TPA, NPBWR1 (neuropeptides B and W receptor 1)
[26] = read-out: % GPCR activation compared to TPA, CCR4 (C-C motif chemokine receptor 4)
[27] = read-out: % GPCR activation compared to TPA, GPR32 (G protein-coupled receptor 32)
[28] = read-out: % GPCR activation compared to TPA, GPCR CXCR4 (chemokine (C-X-C motif) receptor 4)
[29] = read-out: % GPCR activation compared to TPA, NPFF2 (neuropeptide FF receptor 2)
[30] = read-out: % GPCR activation compared to TPA, GIPR (gastric inhibitory polypeptide receptor)
[31] = read-out: % GPCR activation compared to TPA, GAL2 (galanin receptor 2)
[32] = read-out: % GPCR activation compared to TPA, GPR174 (G-Protein Coupled Receptor 174)
[33] = read-out: % GPCR activation compared to TPA, GPCR GPR62 (G protein-coupled receptor 62)

T9 sequence (Q9BZJ7 whole entry): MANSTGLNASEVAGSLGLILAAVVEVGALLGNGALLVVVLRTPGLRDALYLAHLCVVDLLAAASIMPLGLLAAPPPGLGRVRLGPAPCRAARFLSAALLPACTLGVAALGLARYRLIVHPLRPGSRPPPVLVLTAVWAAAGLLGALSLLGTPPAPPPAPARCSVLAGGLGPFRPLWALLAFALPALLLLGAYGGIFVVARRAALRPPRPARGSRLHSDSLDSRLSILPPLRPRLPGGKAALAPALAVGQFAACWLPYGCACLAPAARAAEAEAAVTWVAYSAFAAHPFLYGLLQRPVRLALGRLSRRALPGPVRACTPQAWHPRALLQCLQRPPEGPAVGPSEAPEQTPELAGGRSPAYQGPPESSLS
Sequence of 348 GPCRs (Homo sapiens, UniProt Q99500) (Q99500 whole entry): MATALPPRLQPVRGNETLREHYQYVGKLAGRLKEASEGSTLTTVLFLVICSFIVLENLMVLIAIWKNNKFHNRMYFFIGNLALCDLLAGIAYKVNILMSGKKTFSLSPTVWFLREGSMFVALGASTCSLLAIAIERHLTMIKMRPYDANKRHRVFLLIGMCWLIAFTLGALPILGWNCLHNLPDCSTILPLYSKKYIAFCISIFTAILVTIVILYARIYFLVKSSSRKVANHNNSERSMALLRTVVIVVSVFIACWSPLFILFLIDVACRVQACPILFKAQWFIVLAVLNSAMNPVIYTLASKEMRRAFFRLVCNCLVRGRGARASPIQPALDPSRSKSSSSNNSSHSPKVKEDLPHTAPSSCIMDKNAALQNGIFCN
T8 sequence (Q9BXC1 whole entry): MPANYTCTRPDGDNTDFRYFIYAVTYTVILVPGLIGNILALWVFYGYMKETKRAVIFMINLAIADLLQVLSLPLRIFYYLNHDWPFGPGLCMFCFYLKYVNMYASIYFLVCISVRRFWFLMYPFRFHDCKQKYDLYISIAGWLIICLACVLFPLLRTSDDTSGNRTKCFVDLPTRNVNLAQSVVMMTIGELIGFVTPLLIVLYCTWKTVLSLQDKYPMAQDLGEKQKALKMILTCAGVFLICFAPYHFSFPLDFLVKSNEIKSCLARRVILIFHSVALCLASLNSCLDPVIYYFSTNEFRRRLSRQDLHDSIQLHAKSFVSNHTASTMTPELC
Sequence of 348 GPCRs (Homo sapiens, UniProt P61073) (P61073 whole entry): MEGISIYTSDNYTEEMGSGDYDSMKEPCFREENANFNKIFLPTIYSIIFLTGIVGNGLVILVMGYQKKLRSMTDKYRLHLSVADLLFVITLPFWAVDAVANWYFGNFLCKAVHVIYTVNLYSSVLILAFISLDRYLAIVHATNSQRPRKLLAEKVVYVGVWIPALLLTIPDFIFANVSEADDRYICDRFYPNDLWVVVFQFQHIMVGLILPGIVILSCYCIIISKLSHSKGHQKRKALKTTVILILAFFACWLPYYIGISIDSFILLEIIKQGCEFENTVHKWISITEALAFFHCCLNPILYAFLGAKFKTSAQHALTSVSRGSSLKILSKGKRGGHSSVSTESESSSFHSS
T4 sequence (O75388 whole entry): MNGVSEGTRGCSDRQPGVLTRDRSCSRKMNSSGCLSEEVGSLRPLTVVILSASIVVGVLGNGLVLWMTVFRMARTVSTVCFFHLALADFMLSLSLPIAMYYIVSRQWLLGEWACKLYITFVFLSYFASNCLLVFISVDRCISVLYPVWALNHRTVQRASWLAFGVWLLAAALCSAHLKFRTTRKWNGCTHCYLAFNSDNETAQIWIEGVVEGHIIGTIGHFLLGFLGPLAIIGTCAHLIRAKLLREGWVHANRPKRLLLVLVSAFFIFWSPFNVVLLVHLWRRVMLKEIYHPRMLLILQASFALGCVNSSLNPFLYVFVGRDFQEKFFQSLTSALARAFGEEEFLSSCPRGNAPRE
T5 sequence (Q9Y5X5 whole entry): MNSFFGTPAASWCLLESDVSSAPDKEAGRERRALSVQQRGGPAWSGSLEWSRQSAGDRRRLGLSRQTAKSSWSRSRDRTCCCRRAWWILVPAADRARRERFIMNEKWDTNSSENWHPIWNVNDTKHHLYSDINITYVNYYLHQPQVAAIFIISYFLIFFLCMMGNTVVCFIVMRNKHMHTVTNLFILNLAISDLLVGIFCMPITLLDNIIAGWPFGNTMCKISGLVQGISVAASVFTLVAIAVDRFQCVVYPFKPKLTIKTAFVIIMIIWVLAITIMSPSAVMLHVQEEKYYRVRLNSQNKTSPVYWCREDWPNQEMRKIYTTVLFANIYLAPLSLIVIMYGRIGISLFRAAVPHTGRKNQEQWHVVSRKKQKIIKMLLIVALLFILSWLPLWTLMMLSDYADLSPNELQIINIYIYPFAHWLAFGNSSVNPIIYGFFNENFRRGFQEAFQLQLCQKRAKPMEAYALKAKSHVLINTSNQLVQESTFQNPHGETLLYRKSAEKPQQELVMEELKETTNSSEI

| activation at 10 µM (348 GPCRs [1]; [12]) [%] | activation at 10 µM (348 GPCRs [2]; [13]) [%] | activation at 10 µM (348 GPCRs [3]; [14]) [%] | activation at 100 µM (348 GPCRs [4]; [15]) [%] | activation at 10 µM (348 GPCRs [5]; [16]) [%] | activation at 10 µM (348 GPCRs [6]; [17]) [%] | activation at 10 µM (348 GPCRs [7]; [18]) [%] | activation at 10 µM (348 GPCRs [8]; [19]) [%] | activation at 100 µM (348 GPCRs [9]; [20]) [%] | activation at 100 µM (348 GPCRs [10]; [21]) [%] | activation at 10 µM (348 GPCRs [11]; [22]) [%] | SMILES | activation at 10 µM (348 GPCRs [1]; [23]) [%] | activation at 10 µM (348 GPCRs [2]; [24]) [%] | activation at 10 µM (348 GPCRs [3]; [25]) [%] | activation at 100 µM (348 GPCRs [4]; [26]) [%] | activation at 10 µM (348 GPCRs [5]; [27]) [%] | activation at 10 µM (348 GPCRs [6]; [28]) [%] | activation at 10 µM (348 GPCRs [7]; [29]) [%] | activation at 10 µM (348 GPCRs [8]; [30]) [%] | activation at 100 µM (348 GPCRs [9]; [31]) [%] | further results |
| --- | --- | --- | --- | --- | --- | --- | --- | --- | --- | --- | --- | --- | --- | --- | --- | --- | --- | --- | --- | --- | --- |
| -2.2 | 2.73 | -1.75 | -0.385 | 1.37 | -0.228 | -0.904 | -3.77 | -0.925 | -2.64 | -0.286 | N#C[C@@]1(c2ccc3c(N)ncnn23)O[C@H](CO)[C@@H](O)[C@H]1O [GS441524] | – | – | – | – | – | – | – | – | – | – |
| -2 | 2.09 | -3.5 | 0.85 | 0.0718 | – | -0.818 | -1.79 | -0.244 | -2.2 | – | NC(=O)c1nc(F)cnc1O [favipiravir, 6-fluoro-3-hydroxy-2-pyrazinecarboxamide] | – | – | – | – | – | – | – | – | – | activation at 100 µM (348 GPCRs [6]; GPCR CXCR4 (chemokine (C-X-C motif) receptor 4), 100μM, read-out: % GPCR activation compared to TPA): -0.773%; activation at 100 µM (348 GPCRs [11]; GPCR GPR62 (G protein-coupled receptor 62), 100μM, read-out: % GPCR activation compared to TPA): -1.63% |
| -2.52 | -0.751 | -7.02 | 1.67 | -4.1 | -1.55 | -0.917 | 1.42 | -6.16 | -2 | -0.851 | CC(C)C(=O)OC[C@H]1O[C@@H](n2ccc(NO)nc2=O)[C@H](O)[C@@H]1O [molnupiravir] | – | – | – | – | – | – | – | – | – | – |
| – | – | – | – | – | – | – | – | – | – | – | CCC(CC)COC(=O)[C@H](C)N[P@](=O)(OC[C@H]1O[C@@](C#N)(c2ccc3c(N)ncnn23)[C@H](O)[C@@H]1O)Oc1ccccc1 [remdesivir] | -2.57 | 5.91 | -1.26 | 1.77 | 1.78 | 1.64 | -0.846 | -2.47 | 0.971 | activation at 100 µM (348 GPCRs [10]; [32]): 1.12%; activation at 10 µM (348 GPCRs [11]; [33]): 0.871% |
| – | – | – | – | – | – | – | – | – | – | – | CC(C)OC(=O)[C@H](C)N[P@](=O)(OC[C@H]1O[C@@H](n2ccc(=O)[nH]c2=O)[C@](C)(F)[C@@H]1O)Oc1ccccc1 [sofosbuvir] | -0.452 | -1.59 | -6.08 | -2.38 | -3.92 | 1.3 | -0.549 | -0.359 | 3.27 | activation at 100 µM (348 GPCRs [10]; [32]): -1.73%; activation at 10 µM (348 GPCRs [11]; [33]): 1.52% |

From article PMC10175918 (Communications Biology, 2023)
